In this test the target is Cytochrome P450 2C9 (Homo sapiens, UniProt P11712). Description: Binding affinity towards cytochrome P450 2C9. Type of test: ADME.

By Ki is commonly meant the equilibrium dissociation constant of an inhibitor or competing ligand from its target. Read a high Ki as a looser hold on the target.

Chain of Cytochrome P450 2C9 (P11712 whole entry): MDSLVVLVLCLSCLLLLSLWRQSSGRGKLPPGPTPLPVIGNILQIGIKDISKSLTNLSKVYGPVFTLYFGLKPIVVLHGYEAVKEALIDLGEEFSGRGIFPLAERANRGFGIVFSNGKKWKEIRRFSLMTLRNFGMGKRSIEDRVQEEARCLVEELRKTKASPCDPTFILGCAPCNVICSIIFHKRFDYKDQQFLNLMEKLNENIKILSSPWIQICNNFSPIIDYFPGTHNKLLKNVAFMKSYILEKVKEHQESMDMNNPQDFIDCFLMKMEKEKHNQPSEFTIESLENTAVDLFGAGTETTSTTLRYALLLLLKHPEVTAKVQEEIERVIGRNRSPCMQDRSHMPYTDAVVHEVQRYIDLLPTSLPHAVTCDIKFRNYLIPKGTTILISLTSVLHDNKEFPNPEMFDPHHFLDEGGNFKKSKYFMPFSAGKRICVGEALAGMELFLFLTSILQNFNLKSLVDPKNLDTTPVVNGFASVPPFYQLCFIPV

The molecule `COCCCOc1ccnc(C[S@+]([O-])c2nc3ccccc3[nH]2)c1C` displayed a Ki of 37 µM. For `COc1ccnc(C[S@@+]([O-])c2nc3cc(OC(F)F)ccc3[nH]2)c1OC` the value was 145 µM; for `Nc1c(Oc2ccc(Cl)cc2Cl)ccc(Cl)c1S(=O)(=O)O`, 20 µM; for `COC(=O)c1ccc2nc([S@+]([O-])Cc3nccc(OC)c3OC)[nH]c2c1`, 140 µM. For `[O-][S@+](Cc1cc(OCC2CC2)ccn1)c1nc2cc(F)ccc2[nH]1` the value was 93 µM. `CC(=O)C[C@H](c1ccccc1)C1C(=O)Oc2ccccc2C1O` (some centres undefined) showed a Ki of 13.6 µM. The result for `O=c1c(O)c(-c2ccc(O)cc2)oc2cc(O)cc(O)c12` [KAEMPFEROL] reads 6 µM; that for `COc1ccc2[nH]c([S+]([O-])Cc3ncc(C)c(OC)c3C)nc2c1` (centres undefined) [OMEPRAZOLE], 45 µM; that for `O=C1NC(=O)C2(N1)c1ccccc1-c1ccccc12`, 125 µM. `CO[C@]1(C)C[C@H](c2ccccc2)C2C(=O)Oc3ccccc3C2O1` (some centres undefined) yielded a Ki of 16 µM.

With `Cc1nn(C)c(C)c1NC(=O)c1ccccc1NS(=O)(=O)c1cc(Cl)sc1Cl`, the Ki is 17 µM.

In the case of `CO[C@@]1(C)C[C@H](c2ccccc2)c2c(c3ccccc3oc2=O)O1`, the inhibition constant Ki was 16 µM. `COc1cc(C(=O)NS(=O)(=O)c2ccccc2C)ccc1Cc1cn(C)c2ccc(NC(=O)OC3CCCC3)cc12` [ZAFIRLUKAST] returned a Ki of 2.5 µM. The result for `COc1ccc2nc(S(=O)(=O)Cc3ncc(C)c(OC)c3C)[nH]c2c1` [OMEPRAZOLE SULFONE] reads 35 µM.

Molecule `CCCCC1C(=O)N(c2ccccc2)N(c2ccccc2)C1=O` [PHENYLBUTAZONE] gave a Ki of 19 µM. For `COc1ccnc(C[S@+]([O-])c2nc3cc(OC(F)F)ccc3[nH]2)c1OC` the value was 64 µM; for `COCCCC/C(=N\OCCN)c1ccc(C(F)(F)F)cc1` [FLUVOXAMINE], 8.5 µM; for `CC(=O)[C@H]1CC[C@H]2[C@@H]3CCC4=CC(=O)CC[C@]4(C)[C@H]3CC[C@]12C` [PROGESTERONE], 5.5 µM. For `[O-][S@@+](Cc1cc(OCC2CC2)ccn1)c1nc2ccc(F)cc2[nH]1` the value was 60 µM. For `c1ccc2[nH]c(-c3cscn3)nc2c1` [THIABENDAZOLE] the value was 245 µM; for `COCCCOc1ccnc(C[S@@+]([O-])c2nc3ccccc3[nH]2)c1C` [DEXRABEPRAZOLE], 36 µM; for `COC(=O)c1ccc2[nH]c([S@@+]([O-])Cc3nccc(OC)c3OC)nc2c1`, 64 µM. With `Clc1ccc(CO[C@@H](Cn2ccnc2)c2ccc(Cl)cc2Cl)c(Cl)c1` [(R)-MICONAZOLE], the inhibition constant (Ki) worked out at 6 µM. The result for `Clc1ccc(CO[C@H](Cn2ccnc2)c2ccc(Cl)cc2Cl)c(Cl)c1` reads 6 µM.

For the origin of these results see ChEMBL document CHEMBL1148414, “Conformer- and alignment-independent model for predicting structurally diverse competitive CYP2C9 inhibitors” (J Med Chem, 2004).
